Reference: ChEMBL document CHEMBL4706558, “Factor XII/XIIa inhibitors: Their discovery, development, and potential indications” (Eur J Med Chem, 2020)
One block for each compound: values may come before it.

Assays:
Coagulation factor XII [1] = biological target: T1, Coagulation factor XII (Homo sapiens, UniProt P00748); assay: Inhibition of human factor 12a using chromogenic substrate by Lineweaver-Burk analysis
T1 sequence (P00748 whole entry): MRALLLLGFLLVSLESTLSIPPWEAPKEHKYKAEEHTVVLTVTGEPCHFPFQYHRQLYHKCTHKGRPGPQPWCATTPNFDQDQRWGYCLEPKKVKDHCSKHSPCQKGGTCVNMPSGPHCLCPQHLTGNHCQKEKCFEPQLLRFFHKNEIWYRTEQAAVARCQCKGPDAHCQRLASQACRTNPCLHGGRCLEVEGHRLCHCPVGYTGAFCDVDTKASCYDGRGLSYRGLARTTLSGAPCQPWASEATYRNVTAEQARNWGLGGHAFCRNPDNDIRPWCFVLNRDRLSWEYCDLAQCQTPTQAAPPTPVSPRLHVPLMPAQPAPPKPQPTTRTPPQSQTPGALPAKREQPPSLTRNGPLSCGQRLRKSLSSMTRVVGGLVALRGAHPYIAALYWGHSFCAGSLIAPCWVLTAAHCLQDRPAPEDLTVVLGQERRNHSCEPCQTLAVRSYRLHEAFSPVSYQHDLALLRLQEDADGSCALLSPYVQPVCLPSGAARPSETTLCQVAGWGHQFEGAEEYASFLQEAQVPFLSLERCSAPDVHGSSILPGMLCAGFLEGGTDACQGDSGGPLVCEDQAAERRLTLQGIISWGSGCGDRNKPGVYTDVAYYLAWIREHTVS

[2] = Inhibition of bovine trypsin using chromogenic substrate by Lineweaver-Burk analysis; set-up: species or system Bos taurus
Coagulation factor XII [3] = biological target: T1, Coagulation factor XII; assay: Inhibition of human factor 12a
Coagulation factor XII [4] = biological target: T1, Coagulation factor XII; assay: Inhibition of factor 12a (unknown origin)
Coagulation factor XII [5] = biological target: T1, Coagulation factor XII; assay: Inhibition of human factor 12a using H-D-Pro-Phe-Arg-pNa as substrate by spectrophotometric method
Trypsin [6] = biological target: T2, Trypsin (Homo sapiens, UniProt P07477+P07478+P35030); assay: Inhibition of trypsin (unknown origin); type: protein assay
[7] = Inhibition of bovine trypsin using BAEE as substrate by Lineweaver-Burk analysis; set-up: species or system Bos taurus
Coagulation factor XII [8] = biological target: T1, Coagulation factor XII; assay: Non-competitive inhibition of factor 12a (unknown origin) using BQGR as substrate
Trypsin [9] = biological target: T2, Trypsin; assay: Competitive inhibition of trypsin (unknown origin) using BFSR as substrate; type: protein assay

Ki (Coagulation factor XII [1]): 105 nM
Ki [2]: 16 nM
Structure (SMILES): N=C(N)Nc1ccc(C(=O)Oc2ccc3cc(C(=N)N)ccc3c2)cc1 [NAFAMOSTAT]

IC50 (Coagulation factor XII [3]): 6000 nM
Structure (SMILES): N=C(N)Nc1ccc(OC(=O)c2cc3cc(CCl)ccc3oc2=O)cc1

IC50 (Coagulation factor XII [3]): 150000 nM
Structure (SMILES): Cc1ccc2oc(=O)c(C(=O)Nc3ccc(NC(=N)N)cc3)cc2c1

IC50 (Coagulation factor XII [4]): 14000 nM
Structure (SMILES): Cc1ccc2oc(=O)c(C(=O)Nc3ccc(N)cc3)cc2c1

IC50 (Coagulation factor XII [3]): 102000 nM
Structure (SMILES): N=C(N)Nc1ccc(NC(=O)c2cc3cc(Cl)cc(Br)c3oc2=O)cc1

Ki (Coagulation factor XII [5]): 230 nM
Structure (SMILES): N=C(N)NCCC[C@H](NC(=O)[C@@H]1CCCN1C(=O)[C@H](N)Cc1ccccc1)C(=O)CCl

Ki (Trypsin [6]): 20000 nM
Structure (SMILES): CCCCCCOC(=O)CCCCCNC(=N)N

Ki [7]: 58700 nM
Structure (SMILES): CCCCCCOC(=O)CCCCCN

Ki (Trypsin [6]): 800 nM
Structure (SMILES): N=C(N)NCCCCCC(=O)Oc1ccccc1

Ki (Coagulation factor XII [1]): 2920 nM
Ki [2]: 72 nM
Structure (SMILES): CCOC(=O)c1ccc(OC(=O)CCCCCNC(=N)N)cc1 [GABEXATE]

Ki (Coagulation factor XII [8]): 21 nM
Ki (Trypsin [9]): 97 nM
Structure (SMILES): N=C(N)c1ccc2cc(OC(=O)c3ccc(NC4=NCCN4)cc3)ccc2c1 [SEPIMOSTAT]
